Data taken from US20090018134A1, “Compounds - 945” (AstraZeneca AB, priority 2007, published 2009).
Read-outs that look alike come from different tables or passages of the source.

Target: T1, mTOR (Homo sapiens, UniProt P42345)
T1 construct: FLAG; made in house
Test: In Vitro mTOR Kinase Assay (Echo), Test (a)(ii)
Assay type: biochemical
Source text: (a)(ii) In Vitro mTOR Kinase Assay (Echo)
The assay used AlphaScreen technology (Gray et al., Analytical Biochemistry, 2003, 313: 234-245) to determine the ability of test compounds to inhibit phosphorylation by recombinant mTOR.
A C-terminal truncation of mTOR encompassing amino acid residues 1362 to 2549 of mTOR (EMBL Accession No. L34075) was stably expressed as a FLAG-tagged fusion in HEK293 cells as described by Vilella-Bach et al., […], 1999, 274, 4266-4272. The HEK293 FLAG-tagged mTOR (1362-2549) stable cell line was routinely maintained at 37° C. with 5% CO2 up to a confluency of 70-90% in Dulbecco's modified Eagle's growth medium (DMEM; Invitrogen Limited, Paisley, UK Catalogue No. 41966-029) containing 10% heat-inactivated foetal calf serum (FCS; Sigma, Poole, Dorset, UK, Catalogue No. F0392), 1% L-glutamine (Gibco, Catalogue No. 25030-024) and 2 mg/ml Geneticin (G418 sulfate; Invitrogen Limited, UK Catalogue No. 1013 1-027). Following expression in the mammalian HEK293 cell line, expressed protein was purified using the FLAG epitope tag using standard purification techniques.
Aliquots (120 nl […]) of each compound dilution were acoustically dispensed placed using a Labcyte Echo 550 into a well of a Greiner 384-well low volume (LV) white polystyrene plate (Greiner Bio-one).
These assay solutions were incubated for 2 hours at room temperature.
Each reaction was stopped by the addition of […] of a mixture of EDTA (50 mM), bovine serum albumin (BSA; 0.5 mg/mL) and Tris-HCl pH 7.4 buffer (50 mM) containing p70 S6 Kinase (T389) 1A5 Monoclonal Antibody (Cell Signalling Technology, Catalogue No. 9206B) and AlphaScreen Streptavidin donor and Protein A acceptor beads (200 ng; Perkin Elmer, Catalogue No. 6760002B and 6760137R respectively) were added and the assay plates were left overnight at room temperature in the dark. The resultant signals arising from laser light excitation at 680 nm were read using a Packard Envision instrument.
The phosphorylated biotinylated peptide that is associated with AlphaScreen Streptavidin donor beads forms a complex with the p70 S6 Kinase (T389) 1A5 Monoclonal Antibody that is associated with Alphascreen Protein A acceptor beads. Upon laser light excitation at 680 nm, the donor bead: acceptor bead complex produces a signal that can be measured. Accordingly, the presence of mTOR kinase activity results in an assay signal. In the presence of an mTOR kinase inhibitor, signal strength is reduced.
mTOR enzyme inhibition for a given test compound was expressed as an IC50 value.

[1] = read-out: mTOR Kinase Assay (Echo)
[2] = table of enzyme assay Test (a)(ii), read-out: Test (a)(ii) IC50

T1 sequence (P42345 1362-2549): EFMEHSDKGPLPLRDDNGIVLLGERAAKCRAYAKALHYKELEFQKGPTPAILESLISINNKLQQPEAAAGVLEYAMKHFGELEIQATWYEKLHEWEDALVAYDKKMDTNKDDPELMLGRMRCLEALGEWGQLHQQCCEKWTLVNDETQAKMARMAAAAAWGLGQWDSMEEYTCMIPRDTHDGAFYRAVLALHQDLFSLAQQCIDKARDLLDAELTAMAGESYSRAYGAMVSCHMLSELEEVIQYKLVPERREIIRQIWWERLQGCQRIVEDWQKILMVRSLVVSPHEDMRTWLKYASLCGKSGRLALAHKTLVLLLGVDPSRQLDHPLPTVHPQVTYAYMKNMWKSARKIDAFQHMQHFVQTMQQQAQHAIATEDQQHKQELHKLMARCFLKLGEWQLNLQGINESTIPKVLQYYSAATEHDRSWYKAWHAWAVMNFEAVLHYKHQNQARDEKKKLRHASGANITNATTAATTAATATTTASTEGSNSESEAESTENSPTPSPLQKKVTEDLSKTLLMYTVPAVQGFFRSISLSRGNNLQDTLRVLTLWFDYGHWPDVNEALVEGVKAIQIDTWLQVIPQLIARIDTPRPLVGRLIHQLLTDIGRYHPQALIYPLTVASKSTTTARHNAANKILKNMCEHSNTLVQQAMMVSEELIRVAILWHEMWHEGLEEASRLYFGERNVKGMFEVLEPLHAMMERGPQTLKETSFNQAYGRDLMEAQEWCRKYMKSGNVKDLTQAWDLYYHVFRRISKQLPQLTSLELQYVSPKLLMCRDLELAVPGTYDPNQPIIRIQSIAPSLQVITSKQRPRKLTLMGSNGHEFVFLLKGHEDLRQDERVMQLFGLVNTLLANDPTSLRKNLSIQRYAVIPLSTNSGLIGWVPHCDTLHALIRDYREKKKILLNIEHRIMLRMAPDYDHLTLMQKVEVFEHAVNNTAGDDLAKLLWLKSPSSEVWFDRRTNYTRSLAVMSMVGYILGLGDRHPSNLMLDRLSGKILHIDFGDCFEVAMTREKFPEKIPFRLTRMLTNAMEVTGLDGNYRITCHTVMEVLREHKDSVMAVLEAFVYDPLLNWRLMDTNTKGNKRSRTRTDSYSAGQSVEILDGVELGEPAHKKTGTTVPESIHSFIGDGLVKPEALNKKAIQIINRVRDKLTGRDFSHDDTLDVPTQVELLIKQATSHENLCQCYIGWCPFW

SMILES	IC50 [1] [nM]	IC50 [2] [nM]
C[C@H]1COCCN1c1cc(C2(S(=O)(=O)C3CC3)CC2)nc(-c2ccc(NC(=O)NCCN3CCCC3)cc2)n1 [Example 3p, 1-[4-[4-(1-cyclopropylsulfonylcyclopropyl)-6-[(3S)-3-methylmorpholin-4-yl]pyrimidin-2-yl]phenyl]-3-(2-pyrrolidin-1-ylethyl)urea]	193	
C[C@H]1COCCN1c1cc(C2(S(=O)(=O)C3CC3)CC2)nc(-c2ccc(NC(=O)NCC(O)C(F)(F)F)cc2)n1 (stereo partly drawn) [Example 3q, 1-[4-[4-(1-cyclopropylsulfonylcyclopropyl)-6-[(3S)-3-methylmorpholin-4-yl]pyrimidin-2-yl]phenyl]-3-(3,3,3-trifluoro-2-hydroxypropyl)urea]	8.39	
C[C@H]1COCCN1c1cc(C2(S(=O)(=O)C3CC3)CC2)nc(-c2ccc(NC(=O)NC3COC3)cc2)n1 [Example 3t, 1-[4-[4-(1-cyclopropylsulfonylcyclopropyl)-6-[(3S)-3-methylmorpholin-4-yl]pyrimidin-2-yl]phenyl]-3-(oxetan-3-yl)urea]	4.79	
C[C@H]1COCCN1c1cc(C2(S(=O)(=O)C3CC3)CC2)nc(-c2ccc(NC(=O)Nc3ccn(C)n3)cc2)n1 [Example 3u, 1-[4-[4-(1-cyclopropylsulfonylcyclopropyl)-6-[(3S)-3-methylmorpholin-4-yl]pyrimidin-2-yl]phenyl]-3-(1-methylpyrazol-3-yl)urea]	0.604	
C[C@H]1COCCN1c1cc(C2(S(=O)(=O)C3CC3)CC2)nc(-c2ccc(NC(=O)Nc3ncns3)cc2)n1 [Example 3w, 1-[4-[4-(1-cyclopropylsulfonylcyclopropyl)-6-[(3S)-3-methylmorpholin-4-yl]pyrimidin-2-yl]phenyl]-3-(1,2,4-thiadiazol-5-yl)urea]	0.89	
CC(C)NC(=O)Nc1ccc(-c2nc(N3CCOC[C@@H]3C)cc(C3(S(C)(=O)=O)CCCC3)n2)cc1 [Example 4c, 1-[4-[4-[(3S)-3-methylmorpholin-4-yl]-6-(1-methylsulfonylcyclopentyl)pyrimidin-2-yl]phenyl]-3-propan-2-yl-urea]	16.9	
C[C@H]1COCCN1c1cc(C2(S(C)(=O)=O)CCCC2)nc(-c2ccc(NC(=O)NC3CCC3)cc2)n1 [Example 4d, 3-cyclobutyl-1-[4-[4-[(3S)-3-methylmorpholin-4-yl]-6-(1-methylsulfonylcyclopentyl)pyrimidin-2-yl]phenyl]urea]	10	
C[C@H]1COCCN1c1cc(C2(S(C)(=O)=O)CCCC2)nc(-c2ccc(NC(=O)NCCCO)cc2)n1 [Example 4j, 3-(3-hydroxypropyl)-1-[4-[4-[(3S)-3-methylmorpholin-4-yl]-6-(1-methylsulfonylcyclopentyl)pyrimidin-2-yl]phenyl]urea]	4.61	3.79
C[C@H]1COCCN1c1cc(C2(S(C)(=O)=O)CCCC2)nc(-c2ccc(NC(=O)NCc3ncc[nH]3)cc2)n1 [Example 4n, 3-(1H-imidazol-2-ylmethyl)-1-[4-[4-[(3S)-3-methylmorpholin-4-yl]-6-(1-methylsulfonylcyclopentyl)pyrimidin-2-yl]phenyl]urea]	39.2	
CNC(=O)Nc1ccc(-c2nc(N3CCOC[C@@H]3C)cc(C3(S(C)(=O)=O)CCC3)n2)cc1 [Example 5, 3-Methyl-1-[4-[4-[(3S)-3-methylmorpholin-4-yl]-6-(1-methylsulfonylcyclobutyl)pyrimidin-2-yl]phenyl]urea]	0.802	
CC(C)NC(=O)Nc1ccc(-c2nc(N3CCOC[C@@H]3C)cc(C3(S(C)(=O)=O)CCC3)n2)cc1 [Example 5c, 1-[4-[4-[(3S)-3-methylmorpholin-4-yl]-6-(1-methylsulfonylcyclobutyl)pyrimidin-2-yl]phenyl]-3-propan-2-yl-urea]	6.81	

Second part, the compound after the results:

IC50 [1] [nM]	IC50 [2] [nM]	SMILES
5.96		C[C@H]1COCCN1c1cc(C2(S(=O)(=O)C3CC3)CC2)nc(-c2ccc(NC(=O)NCCC#N)cc2)n1 [Example 3o, 3-(2-cyanoethyl)-1-[4-[4-(1-cyclopropylsulfonylcyclopropyl)-6-[(3S)-3-methylmorpholin-4-yl]pyrimidin-2-yl]phenyl]urea]
48.8		C[C@H]1COCCN1c1cc(C2(S(=O)(=O)C3CC3)CC2)nc(-c2ccc(NC(=O)NCC(C)(C)O)cc2)n1 [Example 3r, 1-[4-[4-(1-cyclopropylsulfonylcyclopropyl)-6-[(3S)-3-methylmorpholin-4-yl]pyrimidin-2-yl]phenyl]-3-(2-hydroxy-2-methylpropyl)urea]
26.3		C[C@H]1COCCN1c1cc(C2(S(=O)(=O)C3CC3)CC2)nc(-c2ccc(NC(=O)NC3(CO)CC3)cc2)n1 [Example 3s, 1-[4-[4-(1-cyclopropylsulfonylcyclopropyl)-6-[(3S)-3-methylmorpholin-4-yl]pyrimidin-2-yl]phenyl]-3-[1-(hydroxymethyl)cyclopropyl]urea]
0.699		CNC(=O)Nc1ccc(-c2nc(N3CCOC[C@@H]3C)cc(C3(S(C)(=O)=O)CCCC3)n2)cc1 [Example 4, 3-Methyl-1-[4-[4-[(3S)-3-methylmorpholin-4-yl]-6-(1-methylsulfonylcyclopentyl)pyrimidin-2-yl]phenyl]urea]
2.16	2.17	CCNC(=O)Nc1ccc(-c2nc(N3CCOC[C@@H]3C)cc(C3(S(C)(=O)=O)CCCC3)n2)cc1 [Example 4a, 3-ethyl-1-[4-[4-[(3S)-3-methylmorpholin-4-yl]-6-(1-methylsulfonylcyclopentyl)pyrimidin-2-yl]phenyl]urea]
1.19	0.767	C[C@H]1COCCN1c1cc(C2(S(C)(=O)=O)CCCC2)nc(-c2ccc(NC(=O)NCCO)cc2)n1 [Example 4e, 3-(2-hydroxyethyl)-1-[4-[4-[(3S)-3-methylmorpholin-4-yl]-6-(1-methylsulfonylcyclopentyl)pyrimidin-2-yl]phenyl]urea]
10		C[C@H]1COCCN1c1cc(C2(S(C)(=O)=O)CCCC2)nc(-c2ccc(NC(=O)NC(C)(C)CO)cc2)n1 [Example 4f, 3-(1-hydroxy-2-methyl-propan-2-yl)-1-[4-[4-[(3S)-3-methylmorpholin-4-yl]-6-(1-methylsulfonylcyclopentyl)pyrimidin-2-yl]phenyl]urea]
62.6		C[C@H]1COCCN1c1cc(C2(S(C)(=O)=O)CCCC2)nc(-c2ccc(NC(=O)NCCN(C)C)cc2)n1 [Example 4g, 3-(2-dimethylaminoethyl)-1-[4-[4-[(3S)-3-methylmorpholin-4-yl]-6-(1-methylsulfonylcyclopentyl)pyrimidin-2-yl]phenyl]urea]
1.57	1.46	CCCNC(=O)Nc1ccc(-c2nc(N3CCOC[C@@H]3C)cc(C3(S(C)(=O)=O)CCCC3)n2)cc1 [Example 4h, 1-[4-[4-[(3S)-3-methylmorpholin-4-yl]-6-(1-methylsulfonylcyclopentyl)pyrimidin-2-yl]phenyl]-3-propyl-urea]
11.5		CC(C)CNC(=O)Nc1ccc(-c2nc(N3CCOC[C@@H]3C)cc(C3(S(C)(=O)=O)CCCC3)n2)cc1 [Example 4i, 1-[4-[4-[(3S)-3-methylmorpholin-4-yl]-6-(1-methylsulfonylcyclopentyl)pyrimidin-2-yl]phenyl]-3-(2-methylpropyl)urea]
9.05		C[C@H]1COCCN1c1cc(C2(S(C)(=O)=O)CCCC2)nc(-c2ccc(NC(=O)Nc3ccc(C(F)(F)F)cc3)cc2)n1 [Example 4k, 1-[4-[4-[(3S)-3-methylmorpholin-4-yl]-6-(1-methylsulfonylcyclopentyl)pyrimidin-2-yl]phenyl]-3-[4-(trifluoromethyl)phenyl]urea]
3.69		C[C@H]1COCCN1c1cc(C2(S(C)(=O)=O)CCCC2)nc(-c2ccc(NC(=O)Nc3ccccn3)cc2)n1 [Example 4l, 1-[4-[4-[(3S)-3-methylmorpholin-4-yl]-6-(1-methylsulfonylcyclopentyl)pyrimidin-2-yl]phenyl]-3-pyridin-2-yl-urea]
2.45		C[C@H]1COCCN1c1cc(C2(S(C)(=O)=O)CCCC2)nc(-c2ccc(NC(=O)Nc3cnn(C)c3)cc2)n1 [Example 4m, 1-[4-[4-[(3S)-3-methylmorpholin-4-yl]-6-(1-methylsulfonylcyclopentyl)pyrimidin-2-yl]phenyl]-3-(1-methylpyrazol-4-yl)urea]
0.289		CCNC(=O)Nc1ccc(-c2nc(N3CCOC[C@@H]3C)cc(C3(S(C)(=O)=O)CCC3)n2)cc1 [Example 5a, 3-ethyl-1-[4-[4-[(3S)-3-methylmorpholin-4-yl]-6-(1-methylsulfonylcyclobutyl)pyrimidin-2-yl]phenyl]urea]
